Measured values taken from patent publication US20240124486A1, “MACROCYCLIC TLR7 AGONIST, PREPARATION METHOD THEREFOR, PHARMACEUTICAL COMPOSITION AND USE THEREOF” (SHANGHAI VISONPHARMA CO., LTD., priority 2020, published 2024).

The compounds below were run against T1, human TLR7 (Homo sapiens, UniProt Q9NYK1) (assay: Agonistic activity on human TLR7 in HEK-Blue hTLR7 cell line (QUANTI-Blue reporter)). Settings: HEK-Blue hTLR7 cells, 16-22 h incubation, absorption at 630 nm; read-out: EC50 value of the agonistic effect on human TLR7.
T1 construct: host or cells: HEK-Blue hTLR7 (HEK293-derived reporter cells)
T1 sequence (Q9NYK1 27-1049): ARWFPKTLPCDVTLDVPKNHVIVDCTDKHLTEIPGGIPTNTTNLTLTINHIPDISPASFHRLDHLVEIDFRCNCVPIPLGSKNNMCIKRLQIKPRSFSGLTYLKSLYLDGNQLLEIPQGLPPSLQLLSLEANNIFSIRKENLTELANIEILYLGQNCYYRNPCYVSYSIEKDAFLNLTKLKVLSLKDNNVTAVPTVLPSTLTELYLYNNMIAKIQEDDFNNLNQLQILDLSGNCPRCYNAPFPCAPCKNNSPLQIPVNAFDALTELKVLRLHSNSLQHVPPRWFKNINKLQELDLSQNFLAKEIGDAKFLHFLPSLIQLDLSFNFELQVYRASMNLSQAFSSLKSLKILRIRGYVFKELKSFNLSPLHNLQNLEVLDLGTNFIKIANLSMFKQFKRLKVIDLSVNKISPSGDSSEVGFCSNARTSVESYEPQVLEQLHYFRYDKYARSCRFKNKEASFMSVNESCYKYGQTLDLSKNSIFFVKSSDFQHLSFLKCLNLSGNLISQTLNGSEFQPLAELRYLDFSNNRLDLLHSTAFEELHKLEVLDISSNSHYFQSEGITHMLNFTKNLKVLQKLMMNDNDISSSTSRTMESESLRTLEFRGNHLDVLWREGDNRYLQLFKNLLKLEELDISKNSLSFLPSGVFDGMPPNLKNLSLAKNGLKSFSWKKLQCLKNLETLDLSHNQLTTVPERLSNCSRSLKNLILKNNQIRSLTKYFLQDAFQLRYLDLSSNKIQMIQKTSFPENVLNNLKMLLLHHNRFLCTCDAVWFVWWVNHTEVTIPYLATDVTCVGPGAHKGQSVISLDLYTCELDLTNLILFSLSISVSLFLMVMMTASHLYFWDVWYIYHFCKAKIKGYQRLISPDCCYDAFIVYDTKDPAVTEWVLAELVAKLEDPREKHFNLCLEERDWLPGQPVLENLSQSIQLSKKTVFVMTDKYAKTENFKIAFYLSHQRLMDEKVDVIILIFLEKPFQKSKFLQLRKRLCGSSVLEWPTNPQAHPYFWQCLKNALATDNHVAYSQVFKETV
Format: cell-based
Description: The TLR7 agonistic activity of the compounds of the invention in HEK-Blue™ hTLR7 cell line with stable expression of human TLR7 were assayed using the following method: • 1. Weighed the test compounds and prepared stock solutions with DMSO (Sigma) at a concentration of 10 mM. […] The highest concentration was 1 mM. • 2. The test compounds and DMSO control were diluted 10-fold in DPBS buffer (Gibco) and then added to a 96-well cell culture plate (Corning) at a volume of 20 μL/well. • 3. HEK-Blue™ hTLR7 cells (Invivogen) were digested with cell separation solution (Gibco), and counted (TC-20 cell counter, Bio-rad). Cells were diluted to 4.4E5/ml using DMEM cell medium (Gibco). Added the cells to a 96-well cell culture plate at a volume of 180 μL/well. The cells were incubated for 16-22 h at 37° C. in a 5% CO2 incubator. • 4. Prepared QUANTI-Blue detection reagent (Invivogen), and added into a new 96-well plate at a volume of 180 μL/well. Twenty μL of cell culture supernatant was transferred from the cell culture plate and added to the 96-well plate and incubated at 37° C. for 1-3 hours. • 5. Neo2 multifunctional microplate reader (Bio-Tek) was used to measure the optical absorption at 630 nm, and the EC50 was calculated by GraphPad Prism.
The agonistic effect of the compounds of the invention on human TLR7 can be determined by the above experiments, and the measured EC50 value is shown in Table 1.

Going from `Nc1nc2nc3c1[nH]c(=O)n3Cc1cc(c3c(c1)C(=O)N(CC(=O)O)C3)C/C=C\CCO2` [Compound I-1] to `CN1Cc2c3cc(cc2C1=O)Cn1c(=O)[nH]c2c(N)nc(nc21)OCCC=CC3` [Compound I-4], the EC50 rises from 3 nM to 5 nM (1.7-fold).

Going from `Nc1nc2nc3c1[nH]c(=O)n3Cc1cc(c3c(c1)C(=O)N(CC(=O)O)C3)CCCCCO2` [Compound I-3] to `CN1Cc2c3cc(cc2C1=O)Cn1c(=O)[nH]c2c(N)nc(nc21)OCCCCC3` [Compound I-5], the EC50 rises from 10 nM to 113 nM (11-fold).

Compared with `Nc1nc2nc3c1[nH]c(=O)n3Cc1cc(c3c(c1)C(=O)N(CCN1CCCC1)C3)C/C=C\CCO2` [Compound I-6], `Nc1nc2nc3c1[nH]c(=O)n3Cc1cc(c3c(c1)C(=O)N(CCN1CCCC1)C3)C/C=C/CCO2` [Compound I-7] is 4-fold higher in EC50: 2 nM for the first, 8 nM for the second.

First: Nc1nc2nc3c1[nH]c(=O)n3Cc1cc(c3c(c1)CNCC3)C/C=C\CCO2 [Compound I-8]
Second: Nc1nc2nc3c1[nH]c(=O)n3Cc1cc(c3c(c1)CNCC3)C/C=C/CCO2 [Compound I-9]
The EC50 of the first is 1.7-fold higher: 15 nM for the first, 9 nM for the second.

Going from `Nc1nc2nc3c1[nH]c(=O)n3Cc1cc(c3c(c1)CNCC3)CCCCCO2` [Compound I-10] to `Nc1nc2nc3c1[nH]c(=O)n3Cc1cc(c3c(c1)CNCC3)CCCCCCO2` [Compound I-28], the EC50 rises from 26 nM to 111 nM (4.3-fold).

`Nc1nc2nc3c1[nH]c(=O)n3Cc1cc(c3c(c1)CCNC3)C/C=C\CCO2` [Compound I-11] and `Nc1nc2nc3c1[nH]c(=O)n3Cc1cc(c3c(c1)CCNC3)C/C=C/CCO2` [Compound I-12] are within 1.5-fold of each other in EC50: 6 nM for the first, 8 nM for the second.

`Nc1nc2nc3c1[nH]c(=O)n3Cc1cc(c3c(c1)CCNC3)CCCCCO2` [Compound I-13] and `CN1CCc2c3cc(cc2C1)Cn1c(=O)[nH]c2c(N)nc(nc21)OCCCCC3` [Compound I-36] are within 1.5-fold of each other in EC50: 28 nM for the first, 20 nM for the second.

Going from `Nc1nc2nc3c1[nH]c(=O)n3Cc1cc(c3c(c1)CCC(C(=O)O)O3)CC=CCCO2` (stereo not shown) [Compound I-14] to `Nc1nc2nc3c1[nH]c(=O)n3Cc1cc(c3c(c1)CC(C(=O)O)O3)CC=CCCO2` (stereo not shown) [Compound I-16], the EC50 falls from 38 nM to 17 nM (2.2-fold). The second is the more potent here.

`Nc1nc2nc3c1[nH]c(=O)n3Cc1cc(c3c(c1)CCC(C(=O)O)O3)CCCCCO2` (stereo not shown) [Compound I-15] and `Nc1nc2nc3c1[nH]c(=O)n3Cc1cc(c3c(c1)CC(C(=O)O)O3)CCCCCO2` (stereo not shown) [Compound I-17] are within 1.5-fold of each other in EC50: 228 nM for the first, 167 nM for the second.

Compared with `Nc1nc2nc3c1[nH]c(=O)n3Cc1cc(c3c(c1)CC(C(=O)O)CO3)CC=CCCO2` (stereo not shown) [Compound I-18], `Nc1nc2nc3c1[nH]c(=O)n3Cc1cc(c3c(c1)CC(C(=O)O)CO3)CCCCCO2` (stereo not shown) [Compound I-19] is 8.2-fold higher in EC50: 20 nM for the first, 165 nM for the second. The first is the more potent here.

Compared with `CC1(C(=O)O)Cc2cc3cc(c2C1)C/C=C\CCOc1nc(N)c2[nH]c(=O)n(c2n1)C3` (stereo not shown) [Compound I-21], `Nc1nc2nc3c1[nH]c(=O)n3Cc1cc(c3c(c1)CN(CC(=O)O)CC3)C/C=C/CCO2` [Compound I-22] is 2.8-fold lower in EC50: 42 nM for the first, 15 nM for the second. The second is the more potent here.

`Nc1nc2nc3c1[nH]c(=O)n3Cc1cc(c3c(c1)CN(CC(=O)O)CC3)CCCCCO2` [Compound I-23] and `Nc1nc2nc3c1[nH]c(=O)n3Cc1cc(c3c(c1)CCN(CC(=O)O)C3)CCCCCO2` [Compound I-25] are within 1.5-fold of each other in EC50: 79 nM for the first, 95 nM for the second.

First: Nc1nc2nc3c1[nH]c(=O)n3Cc1cc(c3c(c1)CCN(CC(=O)O)C3)CC=CCCO2 [Compound I-24]
Second: CS(=O)(=O)N1CCc2c3cc(cc2C1)Cn1c(=O)[nH]c2c(N)nc(nc21)OCCC=CC3 [Compound I-43]
The EC50 of the first is 28-fold higher: 84 nM for the first, 3 nM for the second. The second is the more potent here.

`CC(C)(CN1CCc2c3cc(cc2C1)Cn1c(=O)[nH]c2c(N)nc(nc21)OCCCCC3)C(=O)O` [Compound I-27] and `COC(=O)CN1CCc2c3cc(cc2C1)Cn1c(=O)[nH]c2c(N)nc(nc21)OCCCCC3` [Compound I-49] are within 1.5-fold of each other in EC50: 76 nM for the first, 73 nM for the second.

First: Nc1nc2nc3c1[nH]c(=O)n3Cc1cc3c(c(c1)OC[C@@H]1CC[C@H]1CO2)CCNC3 [Compound I-29]
Second: Nc1nc2nc3c1[nH]c(=O)n3Cc1cc3c(c(c1)OC[C@@H]1CCC[C@H]1CO2)CCNC3 [Compound I-33]
The EC50 of the first is 4-fold lower: 35 nM for the first, 140 nM for the second.

Going from `Nc1nc2nc3c1[nH]c(=O)n3Cc1cc3c(c(c1)OCCCO2)CCNC3` [Compound I-30] to `Nc1nc2nc3c1[nH]c(=O)n3Cc1cc3c(c(c1)OCCCCO2)CCNC3` [Compound I-31], the EC50 falls from 75 nM to 39 nM (1.9-fold). The second is the more potent here.

Compared with `Nc1nc2nc3c1[nH]c(=O)n3Cc1cc3c(c(c1)OC[C@@H]1C[C@H]1CO2)CCNC3` [Compound I-32], `Nc1nc2nc3c1[nH]c(=O)n3Cc1cc(cc3c1CNCC3)OCCCCO2` [Compound I-66] is 13-fold higher in EC50: 31 nM for the first, 393 nM for the second.

First: Nc1nc2cc3c1[nH]c(=O)n3Cc1cc(c3c(c1)CNCC3)C/C=C/CCO2 [Compound I-34]
Second: Nc1nc2nc3c1[nH]c(=O)n3Cc1cc(c3c(c1)CN(S(=O)(=O)c1ccccc1)CC3)CC=CCCO2 [Compound I-45]
The EC50 of the first is 4.4-fold lower: 132 nM for the first, 579 nM for the second.

Compared with `Nc1nc2nc3c1[nH]c(=O)n3Cc1cc(c3c(c1)CN(CCO)CC3)CCCCCO2` [Compound I-38], `CS(=O)(=O)CCN1CCc2c3cc(cc2C1)Cn1c(=O)[nH]c2c(N)nc(nc21)OCCCCC3` [Compound I-59] is 1.9-fold higher in EC50: 47 nM for the first, 87 nM for the second. The first is the more potent here.

Compared with `Nc1nc2nc3c1[nH]c(=O)n3Cc1cc(c3c(c1)CN(CC(F)(F)F)CC3)CCCCCO2` [Compound I-39], `Nc1nc2nc3c1[nH]c(=O)n3Cc1cc(c3c(c1)CN(Cc1ccncc1)CC3)CCCCCO2` [Compound I-47] is 19-fold lower in EC50: 3150 nM for the first, 165 nM for the second. The second is the more potent here.

Compared with `Nc1nc2nc3c1[nH]c(=O)n3Cc1cc(c3c(c1)CN(C1CCNCC1)CC3)CCCCCO2` [Compound I-40], `Nc1nc2nc3c1[nH]c(=O)n3Cc1cc(c3c(c1)CN(C1CCOCC1)CC3)CCCCCO2` [Compound I-41] is 13-fold lower in EC50: 280 nM for the first, 22 nM for the second.

Going from `Nc1nc2nc3c1[nH]c(=O)n3Cc1cc(c3c(c1)CN(C(=O)c1ccccc1)CC3)CC=CCCO2` [Compound I-44] to `Cc1cnc(N2CCc3c4cc(cc3C2)Cn2c(=O)[nH]c3c(N)nc(nc32)OCCCCC4)nc1` [Compound I-46], the EC50 rises from 38 nM to 980 nM (26-fold). The first is the more potent here.

Compared with `CC(C)(C)N1Cc2c3cc(cc2C1=O)Cn1c(=O)[nH]c2c(N)nc(nc21)SCC/C=C\C3` [Compound I-52], `CN1CCC=CCc2cc(cc3c2CN(C(C)(C)C)C3=O)Cn2c(=O)[nH]c3c(N)nc1nc32` [Compound I-58] is 58-fold higher in EC50: 19 nM for the first, 1100 nM for the second. The first is the more potent here.

Going from `Nc1nc2nc3c1[nH]c(=O)n3Cc1cc(c3c(c1)CNCC3)CCCCCS2(=O)=O` [Compound I-61] to `CC(C)N1CCc2c3cc(cc2C1)Cn1c(=O)[nH]c2c(N)nc(nc21)S(=O)(=O)CCCCC3` [Compound I-63], the EC50 rises from 13 nM to 31 nM (2.4-fold). The first is the more potent here.

Compared with `Nc1nc2nc3c1[nH]c(=O)n3Cc1cc(c3c(c1)CN(C1CCC1)CC3)CCCCCS2(=O)=O` [Compound I-62], `Nc1nc2nc3c1[nH]c(=O)n3Cc1cc(cc3c1CN(C1CCC1)CC3)OCCCCO2` [Compound I-68] is 1.9-fold higher in EC50: 13 nM for the first, 25 nM for the second.

First: CC(C)N1CCc2cc3cc(c2C1)OCCCCOc1nc(N)c2[nH]c(=O)n(c2n1)C3 [Compound I-64]
Second: Nc1nc2nc3c1[nH]c(=O)n3Cc1cc(cc3c1OCC3)CCCCCO2 [Compound I-67]
The EC50 of the first is 29-fold lower: 11 nM for the first, 316 nM for the second. The first is the more potent here.
